Results on two molecules are retold here after patent US9012414B2, “Cosmetic composition” (Guerlain, priority 2010, dated 2015).

Data set [1] is described as follows: Solubility of the isolated vandaterosides. Format: physicochemical.
Data set [2] has as its system HaCaT cells. As to the kind of experiment: Measurement of mitochondrial biogenesis on modified human keratinocytes (HaCaT), qPCR of 16S and COX2 DNA versus UCP-2. In kind it is cell-based. The note with it: 48 h. How it is done: The objective is to verify whether or not the increase in enzymatic activity measured is linked to a basal stimulation of the respiratory chain of the mitochondria initially present or to an increase in the number of intracellular mitochondria, indicative of a stimulation of mitochondrial biogenesis.
The HaCaT cells are cultured in 6-well plates and then treated as described above. After treatment for 48 h, the cells are lysed with a buffer consisting of 10 mM of Tris base, 1 mM EDTA, 0.3M of sodium acetate and 1% SDS (1 ml/well) and according to an incubation time of overnight at 55° C. The mitochondrial DNA is extracted from the cell lysate with a phenol solution (1/1 ratio). Two cycles of centrifugation at 4000 rpm (5 minutes) are carried out. A solution de CHCl3/isoamyl alcohol (24:1, v/v) is then added to the upper aqueous phase, recovered after settling out. The mixture is then centrifuged (5 minutes, 4000 rpm, 4° C.).
Precipitation of the total DNA is induced by adding an absolute ethanol/3M sodium acetate mixture ([…]) to the supernatant. After centrifugation (30 minutes, 12000 rpm, 4° C.), the pellets are washed with EtOH at 70° v/v, and then dried and taken up in deionized water. The DNA is assayed using a spectrometer (Thermo Scientific Nanodrop). The DNA solutions are adjusted to a concentration of 10 ng/μl.
The expression of three different genes is measured by qPCR. This technique makes it possible to measure the amount of DNA polymerized by means of a fluorescent label. […]
The fluorescence is measured after the 45 cycles and the amount of DNA obtained is determined by means of the DNA range.
The results are expressed in amount of 16S and COX2 (QCOX2) DNA, calculated according to the amount of UCP-2 genomic DNA (QUCP-2), and which is defined as (QCOX2)/(QUCP-2)
A calculated (QCOX2)/(QUCP-2) ratio of greater than 1 indicates an increase in the amount of mitochondrial DNA, and reflects an increase in the number of intracellular mitochondria.

Data set [3] has as its system keratinocyte differentiation proteins (transglutaminase, involucrin, desmoglein 1). In words: Stimulation of the differentiation of normal human keratinocytes (immunolabeling of differentiation proteins). Format: cell-based. The note with it: NHKs, 12 μg/ml, treatment 5 days. The procedure:
The NHKs are cultured at passage 3 in complete KSFM medium in a T75 flask. At the pre-confluence stage, the NHKs are trypsinized and seeded in a proportion of 20 000 cells per well in 8-well Lab-Tek II culture systems (Nalge Nunc International), 4 wells per treatment condition. At 80% confluence, the cells are treated for 5 days with the various compositions of active agents (VT1, VT2, VT3, each at 12 μg/ml) until the post-confluence stage is reached. Vitactyl® clair (extract of Malva sylvestris, Silab) at 3% is used as a positive control.
The cells are rinsed with PBS (PBS Tablets, Invitrogen GIBCO) and then fixed with formalin (Formalin Solution, 10%, Neutral Buffered, Sigma) for 10 minutes.
After rinsing with PBS, the culture chambers are filled with a 0.1% Triton solution (Triton X-100, Sigma) for 10 minutes in order to permeabilize the membranes, and then rinsed twice with PBS. The cells are then covered with a solution of PBS/1% BSA (BSA, Sigma) for 30 minutes at ambient temperature. The PBS/BSA solution is removed from the slides by inclining them on absorbent paper. […]
For each condition, four photos are taken in green fluorescence (expression of the markers) with the ×20 objective. […]
The photos are analyzed using the Leica QWin image analysis software. A program is created in order to quantify the expression of these differentiation markers.

Where [4] appears, read: concentrations tested other than VT1 at 6.25 μg/ml.

Consider `O=C(CC(O)(Cc1ccc(O)cc1)C(=O)OCc1ccc(O[C@@H]2O[C@H](CO)[C@@H](O)[C@H](O)[C@H]2O)cc1)OCc1ccc(O[C@@H]2O[C@H](CO)[C@@H](O)[C@H](O)[C@H]2O)cc1` (stereo partly drawn) [VT2, 1,4-bis(4-β-D-glucopyranosyloxybenzyl)-(2R)-2-(p-hydroxybenzyl) malate], for which the “Solubility in MeOH and DMSO” value in data set [1] is recorded as “soluble”. Moreover, in data set [1] (water), the “Concentration at which a gel forms in water” value is “approximately 10 mM” and the Solubility in water entry was “low solubility”. Besides, the “Activation of mitochondrial biogenesis (increase in number of intracellular mitochondria)” value in data set [2] (setting [4]) is “neither of the two compounds induces an activation of mitochondrial biogenesis”. In addition, the “Stimulation of keratinocyte differentiation protein expression compared with the negative control” value in data set [3] is recorded as “most effective”.

Consider `O=C(CC(O)(Cc1ccc(O)cc1)C(=O)O)OCc1ccc(O[C@@H]2O[C@H](CO)C(O)[C@H](O)[C@H]2O)cc1` (stereo partly drawn) [VT1, 4-(4-β-D-glucopyranosyloxybenzyl)-(2R)-2-(p-hydroxybenzyl) malate], for which, in data set [1], the “Solubility in MeOH and DMSO” value was “soluble”. Besides, the Solubility in water entry in data set [1] (water) was “low solubility”. Besides, the “Activation of mitochondrial biogenesis (increase in number of intracellular mitochondria)” value is “with the exception of VT1 at 6.25 μg/ml” in data set [2] (6.25 μg/ml, the exception means activation was seen) and “neither of the two compounds induces an activation of mitochondrial biogenesis” in data set [2] (setting [4]). For the same molecule, the “Stimulation of keratinocyte differentiation protein expression compared with the negative control” value in data set [3] is on record as “most effective”.
